Test results published in PMC8550792, “Evolution of kinase polypharmacology across HSP90 drug discovery” (Cell Chemical Biology, 2021).

Legend:
Assay in all cases: biochemical
Format in all cases: biochemical
382 unique human kinases [1] = biological target: T1, 382 unique human kinases (Homo sapiens, UniProt P36888); conditions: FLT3, [ATP] 50 µM, compound 10 uM; for remaining activity at 10 µM: read-out: % Enzyme Activity (relative to DMSO controls)
T1 construct: purchased Reaction Biology (HotSpot contract assay)
T1 sequence (P36888 27-993): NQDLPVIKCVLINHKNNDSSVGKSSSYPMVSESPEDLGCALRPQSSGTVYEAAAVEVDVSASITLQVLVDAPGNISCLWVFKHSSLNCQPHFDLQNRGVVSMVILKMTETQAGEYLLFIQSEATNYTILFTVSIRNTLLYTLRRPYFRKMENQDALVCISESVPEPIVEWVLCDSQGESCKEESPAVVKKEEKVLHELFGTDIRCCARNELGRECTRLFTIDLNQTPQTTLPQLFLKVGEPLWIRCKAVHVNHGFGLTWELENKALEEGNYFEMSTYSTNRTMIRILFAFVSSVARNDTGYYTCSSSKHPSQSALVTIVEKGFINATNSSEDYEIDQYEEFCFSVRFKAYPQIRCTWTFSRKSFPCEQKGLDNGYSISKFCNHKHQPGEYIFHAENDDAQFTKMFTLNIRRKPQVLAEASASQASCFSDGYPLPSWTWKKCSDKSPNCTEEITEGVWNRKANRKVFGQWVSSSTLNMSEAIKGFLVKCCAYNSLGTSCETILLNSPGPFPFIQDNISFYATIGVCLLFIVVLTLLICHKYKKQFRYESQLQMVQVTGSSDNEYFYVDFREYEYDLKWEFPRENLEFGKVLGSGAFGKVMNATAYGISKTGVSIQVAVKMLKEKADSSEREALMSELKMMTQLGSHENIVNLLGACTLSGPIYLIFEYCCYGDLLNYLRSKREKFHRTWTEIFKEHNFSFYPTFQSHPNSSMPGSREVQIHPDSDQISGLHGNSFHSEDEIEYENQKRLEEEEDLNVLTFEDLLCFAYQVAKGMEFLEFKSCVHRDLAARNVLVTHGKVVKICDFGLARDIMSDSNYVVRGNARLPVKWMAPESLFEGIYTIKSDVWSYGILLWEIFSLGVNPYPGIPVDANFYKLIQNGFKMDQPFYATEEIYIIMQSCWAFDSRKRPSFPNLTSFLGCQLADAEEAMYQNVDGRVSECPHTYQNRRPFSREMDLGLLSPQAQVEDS

382 unique human kinases [2] = biological target: T2, 382 unique human kinases (Homo sapiens, UniProt Q09013); conditions: DMPK, 10 uM; for remaining activity at 10 µM: read-out: % Enzyme Activity (relative to DMSO controls)
T2 construct: purchased Reaction Biology (HotSpot contract assay)
T2 sequence (Q09013 1-629): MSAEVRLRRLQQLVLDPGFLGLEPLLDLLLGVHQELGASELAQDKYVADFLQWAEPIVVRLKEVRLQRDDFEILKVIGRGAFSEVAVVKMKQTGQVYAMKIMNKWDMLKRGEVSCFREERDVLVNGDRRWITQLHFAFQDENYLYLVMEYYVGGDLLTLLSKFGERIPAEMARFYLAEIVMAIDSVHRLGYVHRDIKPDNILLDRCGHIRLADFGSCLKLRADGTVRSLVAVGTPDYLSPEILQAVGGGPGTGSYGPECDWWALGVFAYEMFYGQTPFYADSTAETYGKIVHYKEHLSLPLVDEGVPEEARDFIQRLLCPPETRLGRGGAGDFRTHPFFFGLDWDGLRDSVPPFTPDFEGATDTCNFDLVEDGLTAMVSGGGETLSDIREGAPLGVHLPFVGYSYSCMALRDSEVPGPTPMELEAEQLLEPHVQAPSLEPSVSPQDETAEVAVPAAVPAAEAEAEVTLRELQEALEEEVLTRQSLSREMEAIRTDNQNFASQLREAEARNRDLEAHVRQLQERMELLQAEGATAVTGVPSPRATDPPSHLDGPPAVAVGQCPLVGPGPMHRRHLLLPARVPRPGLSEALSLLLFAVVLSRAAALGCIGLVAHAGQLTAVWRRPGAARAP

382 unique human kinases [3] = biological target: T3, 382 unique human kinases (Homo sapiens, UniProt P08922, G2032R); conditions: ROS1 (G2032R), 10 uM; for remaining activity at 10 µM: read-out: % Enzyme Activity (relative to DMSO controls)
T3 construct: purchased Reaction Biology (HotSpot contract assay)
T3 sequence (P08922 28-2347 G2032R): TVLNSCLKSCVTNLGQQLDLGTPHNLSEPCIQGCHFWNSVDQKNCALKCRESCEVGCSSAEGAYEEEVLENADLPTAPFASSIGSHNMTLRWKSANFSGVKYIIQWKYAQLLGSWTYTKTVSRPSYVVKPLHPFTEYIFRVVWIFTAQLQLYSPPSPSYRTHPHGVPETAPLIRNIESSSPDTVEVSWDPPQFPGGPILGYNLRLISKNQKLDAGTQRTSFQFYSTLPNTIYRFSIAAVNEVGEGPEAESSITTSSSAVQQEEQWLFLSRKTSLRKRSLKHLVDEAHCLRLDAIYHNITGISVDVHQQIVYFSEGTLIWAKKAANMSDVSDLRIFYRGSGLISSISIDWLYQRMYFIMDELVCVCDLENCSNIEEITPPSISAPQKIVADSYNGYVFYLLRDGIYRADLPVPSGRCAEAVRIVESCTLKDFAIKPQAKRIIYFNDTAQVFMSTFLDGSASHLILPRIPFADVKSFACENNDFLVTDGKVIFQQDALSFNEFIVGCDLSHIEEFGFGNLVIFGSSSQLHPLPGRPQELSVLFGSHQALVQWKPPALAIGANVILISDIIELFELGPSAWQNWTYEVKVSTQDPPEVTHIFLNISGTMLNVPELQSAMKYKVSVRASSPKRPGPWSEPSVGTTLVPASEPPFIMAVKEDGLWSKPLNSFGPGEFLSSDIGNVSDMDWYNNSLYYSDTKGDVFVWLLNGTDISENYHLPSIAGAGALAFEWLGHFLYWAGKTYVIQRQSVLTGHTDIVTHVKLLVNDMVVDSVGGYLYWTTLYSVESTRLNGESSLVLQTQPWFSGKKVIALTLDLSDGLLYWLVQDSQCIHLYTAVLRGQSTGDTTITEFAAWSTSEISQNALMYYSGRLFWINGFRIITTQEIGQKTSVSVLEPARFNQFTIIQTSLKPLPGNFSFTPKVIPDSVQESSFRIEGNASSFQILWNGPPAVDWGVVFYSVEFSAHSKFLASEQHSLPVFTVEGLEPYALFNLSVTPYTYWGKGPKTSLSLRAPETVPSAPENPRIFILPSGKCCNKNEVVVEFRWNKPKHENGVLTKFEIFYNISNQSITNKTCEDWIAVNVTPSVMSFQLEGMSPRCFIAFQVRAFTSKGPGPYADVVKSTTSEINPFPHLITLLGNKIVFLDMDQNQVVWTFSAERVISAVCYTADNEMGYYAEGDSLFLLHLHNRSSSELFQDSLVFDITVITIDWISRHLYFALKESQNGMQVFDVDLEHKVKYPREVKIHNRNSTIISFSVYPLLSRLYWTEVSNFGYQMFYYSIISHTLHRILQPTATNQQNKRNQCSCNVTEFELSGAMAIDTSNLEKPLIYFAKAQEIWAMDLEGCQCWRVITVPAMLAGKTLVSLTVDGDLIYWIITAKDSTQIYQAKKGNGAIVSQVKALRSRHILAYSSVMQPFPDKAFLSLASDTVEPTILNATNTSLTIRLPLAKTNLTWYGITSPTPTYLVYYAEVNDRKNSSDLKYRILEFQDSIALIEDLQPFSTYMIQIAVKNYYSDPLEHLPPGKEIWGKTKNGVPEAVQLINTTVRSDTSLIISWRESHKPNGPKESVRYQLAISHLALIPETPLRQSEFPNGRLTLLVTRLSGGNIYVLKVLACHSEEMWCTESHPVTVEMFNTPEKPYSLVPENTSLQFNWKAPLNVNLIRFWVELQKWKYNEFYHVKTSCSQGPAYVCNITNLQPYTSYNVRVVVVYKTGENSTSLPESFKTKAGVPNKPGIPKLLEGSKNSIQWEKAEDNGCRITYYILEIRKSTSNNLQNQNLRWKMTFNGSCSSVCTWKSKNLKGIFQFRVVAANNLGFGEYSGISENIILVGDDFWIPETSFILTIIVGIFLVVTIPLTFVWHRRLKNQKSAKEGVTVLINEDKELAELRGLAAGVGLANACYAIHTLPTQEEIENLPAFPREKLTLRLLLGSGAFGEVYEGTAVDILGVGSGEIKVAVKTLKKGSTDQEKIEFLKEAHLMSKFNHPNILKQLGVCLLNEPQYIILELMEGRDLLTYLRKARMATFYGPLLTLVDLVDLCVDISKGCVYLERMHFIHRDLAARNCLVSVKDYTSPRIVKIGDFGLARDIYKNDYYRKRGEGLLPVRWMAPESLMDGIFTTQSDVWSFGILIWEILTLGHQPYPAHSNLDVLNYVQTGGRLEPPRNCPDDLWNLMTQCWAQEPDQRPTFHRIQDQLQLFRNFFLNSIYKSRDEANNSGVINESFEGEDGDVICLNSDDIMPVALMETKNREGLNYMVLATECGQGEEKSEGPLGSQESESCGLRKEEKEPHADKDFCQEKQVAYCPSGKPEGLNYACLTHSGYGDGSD

382 unique human kinases [4] = biological target: T4, 382 unique human kinases (Homo sapiens, UniProt P00533, L858R); conditions: kinase EGFR (L858R), compound 10 uM; for remaining activity at 10 µM: read-out: % Enzyme Activity (relative to DMSO controls)
T4 construct: purchased Reaction Biology (HotSpot contract assay)

382 unique human kinases [5] = biological target: T5, 382 unique human kinases (Homo sapiens, UniProt O14920); conditions: IKKb/IKBKB, 10 uM; for remaining activity at 10 µM: read-out: % Enzyme Activity (relative to DMSO controls)
T5 construct: purchased Reaction Biology (HotSpot contract assay)
T5 sequence (O14920 1-756): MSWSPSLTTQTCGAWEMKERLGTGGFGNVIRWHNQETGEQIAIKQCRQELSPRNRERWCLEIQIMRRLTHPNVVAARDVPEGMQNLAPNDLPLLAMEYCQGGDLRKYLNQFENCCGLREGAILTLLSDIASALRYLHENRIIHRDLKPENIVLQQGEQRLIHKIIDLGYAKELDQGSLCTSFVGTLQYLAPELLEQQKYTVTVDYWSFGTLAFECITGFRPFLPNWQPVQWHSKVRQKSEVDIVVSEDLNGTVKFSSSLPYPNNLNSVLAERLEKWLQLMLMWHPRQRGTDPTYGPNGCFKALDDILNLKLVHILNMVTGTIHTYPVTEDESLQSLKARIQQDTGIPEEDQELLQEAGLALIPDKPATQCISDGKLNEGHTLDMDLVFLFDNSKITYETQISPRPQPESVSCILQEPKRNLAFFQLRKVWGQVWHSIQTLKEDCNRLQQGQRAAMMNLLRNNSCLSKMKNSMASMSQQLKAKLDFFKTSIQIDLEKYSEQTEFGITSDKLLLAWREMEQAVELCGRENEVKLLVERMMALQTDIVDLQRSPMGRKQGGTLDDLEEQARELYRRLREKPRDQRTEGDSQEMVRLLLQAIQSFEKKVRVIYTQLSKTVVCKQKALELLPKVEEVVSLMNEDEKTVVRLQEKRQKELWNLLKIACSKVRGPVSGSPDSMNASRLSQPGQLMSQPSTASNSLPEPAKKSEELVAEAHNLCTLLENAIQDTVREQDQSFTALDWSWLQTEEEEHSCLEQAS

382 unique human kinases [6] = biological target: T6, 382 unique human kinases (Homo sapiens, UniProt P53779); conditions: JNK3, compound at 10 uM, duplicate values; for remaining activity at 10 µM: read-out: % Enzyme Activity (relative to DMSO controls)
T6 construct: purchased Reaction Biology (HotSpot contract assay)
T6 sequence (P53779 whole entry): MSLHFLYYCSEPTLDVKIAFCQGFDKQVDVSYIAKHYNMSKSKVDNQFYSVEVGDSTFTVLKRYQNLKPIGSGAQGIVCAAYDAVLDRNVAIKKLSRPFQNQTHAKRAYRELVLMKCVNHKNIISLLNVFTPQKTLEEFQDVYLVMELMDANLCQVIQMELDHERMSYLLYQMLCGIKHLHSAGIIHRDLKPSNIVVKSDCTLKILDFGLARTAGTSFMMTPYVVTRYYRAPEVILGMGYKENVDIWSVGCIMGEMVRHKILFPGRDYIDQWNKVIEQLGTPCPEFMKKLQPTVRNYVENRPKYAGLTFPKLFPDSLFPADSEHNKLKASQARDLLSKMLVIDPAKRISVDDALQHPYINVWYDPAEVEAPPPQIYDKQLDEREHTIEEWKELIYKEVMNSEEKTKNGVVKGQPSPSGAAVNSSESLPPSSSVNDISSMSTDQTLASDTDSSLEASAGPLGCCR

382 unique human kinases [7] = biological target: T7, 382 unique human kinases (Homo sapiens, UniProt Q07002); conditions: CDK18/cyclin Y (PCTK3), compound at 10 uM, duplicate values; for remaining activity at 10 µM: read-out: % Enzyme Activity (relative to DMSO controls)
T7 construct: purchased Reaction Biology (HotSpot contract assay)
T7 sequence (Q07002 whole entry): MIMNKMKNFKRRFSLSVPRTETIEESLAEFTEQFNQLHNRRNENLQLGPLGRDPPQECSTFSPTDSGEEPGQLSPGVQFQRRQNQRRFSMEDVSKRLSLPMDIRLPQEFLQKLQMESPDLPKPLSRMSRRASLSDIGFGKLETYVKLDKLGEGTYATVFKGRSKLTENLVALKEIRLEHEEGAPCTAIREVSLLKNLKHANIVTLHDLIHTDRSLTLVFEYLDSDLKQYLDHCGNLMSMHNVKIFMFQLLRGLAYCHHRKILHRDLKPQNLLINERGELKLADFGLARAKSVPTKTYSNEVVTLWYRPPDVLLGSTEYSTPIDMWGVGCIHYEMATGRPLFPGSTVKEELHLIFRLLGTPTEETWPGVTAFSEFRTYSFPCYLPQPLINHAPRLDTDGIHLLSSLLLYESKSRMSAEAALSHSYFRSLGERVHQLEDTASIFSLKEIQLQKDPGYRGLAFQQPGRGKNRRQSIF

SMILES | % Enzyme Activity (relative to DMSO controls) (382 unique human kinases [1]) [%] | remaining activity at 10 µM (382 unique human kinases [1]) [%] | % Enzyme Activity (relative to DMSO controls) (382 unique human kinases [2]) [%] | remaining activity at 10 µM (382 unique human kinases [2]) [%] | remaining activity at 10 µM (382 unique human kinases [3]) [%] | remaining activity at 10 µM (382 unique human kinases [4]) [%] | remaining activity at 10 µM (382 unique human kinases [5]) [%] | remaining activity at 10 µM (382 unique human kinases [6]) [%] | remaining activity at 10 µM (382 unique human kinases [7]) [%] | % Enzyme Activity (relative to DMSO controls) (382 unique human kinases [3]) [%] | % Enzyme Activity (relative to DMSO controls) (382 unique human kinases [4]) [%] | % Enzyme Activity (relative to DMSO controls) (382 unique human kinases [5]) [%] | % Enzyme Activity (relative to DMSO controls) (382 unique human kinases [6]) [%] | % Enzyme Activity (relative to DMSO controls) (382 unique human kinases [7]) [%]
CCNC(=O)c1noc(-c2cc(C(C)C)c(O)cc2O)c1-c1ccc(CN2CCOCC2)cc1 [Luminespib] | 80.03 | 80.1 | 99.26 | 100 | – | – | – | – | – | – | – | – | – | –
CC(C)c1cc(-c2n[nH]c(=O)n2-c2ccc3c(ccn3C)c2)c(O)cc1O [Ganetespib (STA9090)] | – | – | – | – | 66.8 | 88.8 | 66.7 | 118 | 107 | – | – | – | – | –
CCNC(=O)c1noc(-c2cc(C(C)C)c(O)cc2O)c1-c1ccc(CN2CCOCC2)cc1 [Luminespib (AUY-922)] | – | – | – | – | 109 | 97 | 104 | 107 | 111 | 106.59 | 96.48 | 102.97 | 106.79 | 109.58
CC(C)c1cc(-c2n[nH]c(=O)n2-c2ccc3c(ccn3C)c2)c(O)cc1O [Ganetespib] | – | 30.4 | – | 110 | – | – | – | – | – | – | – | – | – | –
